Patent publication US20060121498A1, “Enzymes involved in apoptosis” (EiRx Therapeutics Limited, priority 2003, published 2006)
Where two headings read alike, the source gives them in different places.

Columns and labels:
[1] = cited from earlier work
neutrophils = assay: Neutrophil apoptosis, sub G1 analysis (DNA fragmentation); type: cell-based, human
Experimental: Neutrophils are isolated from the blood as described in WO 02/04657 and resuspended at a concentration of 2×10^6/ml. Five hundred microlitres are pipetted into wells of a 24 well plate and incubated in the presence or absence of survival factors.
After this incubation, the neutrophils are carefully resuspended by gentle agitation and the total contents of the well are placed into an eppendorf and centrifuged @2800 rpm for 2 min @ RT in a minifuge. The cell pellet is carefully resuspended in 300 μl of ice cold hypotonic fluorochrome solution (50 μg/ml Propidium Iodide, 0.1% Sodium Citrate and 0.1% Triton X-100) and placed in a fridge for 24 h @ 4° C.
Prepared samples are analysed with a FacsCalibre flow cytometer (Becton Dickinson) using double discrimination to ensure single cell suspension with Log Forward and Side Scatter Parameter acquisition.
Neutrophils are seeded at 2×10^6/ml in a 24 well plate in full culture medium (1 ml/well). A PI3K inhibitor (Ly94002) is added to the neutrophils to a final concentration of 20 μM prior to the addition of GM-CSF (50 units/ml). Control wells received either no GM-CSF or GM-CSF (50 units/ml) in the absence of inhibitor. Neutrophils are cultured for 18 h at 37° C. prior to harvest and prepared for sub G1 analysis, as previously described.
Neutrophils are seeded at 2×10^6/ml in a 24 well plate in full culture medium (1 ml/well). […]

MIAPaCa-2 and HuTu80 = conditions: cited from earlier work
CAL27 tumour cell line = conditions: relatively low basal DPD activity; cited from earlier work
MIAPaCa-2 cells = conditions: nude mouse, subcutaneous MIAPaCa-2; cited from earlier work
Walker 256 tumour = conditions: diet of 5.5% GLA; cited from earlier work
bone marrow derived DC = conditions: pretreatment; cited from earlier work
[2] = system: MCF-7 human breast cancer cells; conditions: inhibition of FAS with cerulenin; cited from earlier work
[3] = system: redox related genes such as heme oxygenase 1 and Glutathione reductase; conditions: cited from earlier work
TF-1 cells [4] = assay: Overexpression of identified genes in TF1 cells, viability by FSc/SSc; type: cell-based, human; conditions: 96 h post transduction, versus control plasmid Pms*H
Excerpt: To assess the apoptotic activity of the apoptosis-associated genes identified herein, TF1 cells are transduced with either a plasmid expressing the gene of interest coding sequence or a control plasmid (PMs*H). The gene coding sequence encoding the amino acid sequence set out in Table 1 is cloned into the retroviral expression vector pMSCV (Clontech). Plasmids are transfected into the retroviral packaging cell line Phoenix 293 (Standford) using the CalPhos Mammalian Transfection Kit (Clontech) according to the manufacturer's instructions. Retrovirus is harvested 72 hours later. Retrovirus is transduced to TF 1 cells by incubation for 18 hours. Media is changed and cells are incubated for an additional 96 hours.
The cells are examined for viability after 96 hours using forward scatter/side scatter parameters.

TF-1 cells [5] = assay: TF-1 apoptosis by light scatter analysis (live gate); type: cell-based, human; conditions: 48 h with GM-CSF 2 ng/ml (35% upon factor withdrawal)
Experimental: Light Scatter Analysis takes advantage of the fact that by using the laser beam of a flow cytometer one can determine the size (Forward Scatter) and granularity (Side Scatter) of a cell. The morphological changes associated with apoptosis, such as decreased size (shrinkage) and granularity affect these parameters. As a consequence, cells undergoing apoptosis will move to the left and slightly down, from the parameters of a healthy population.
TF-1 cells are plated into 24 well plates (2×10^5/ml) and are cultured for 48 h in the presence or absence of GM-CSF (2 ng/ml). Cells are then harvested by centrifugation (1000 rpm, for 10 min) and washed in PBS. The pellet is resuspended in PBS (2×10^5 cells/ml) and acquired by a FacsCalibre. Forward and Side scatter parameters are assessed using Cell Quest software.
Culturing TF-1 cells in the absence of GM-CSF induces cell death. This death induces morphological changes in the Forward and Side Scatter parameters that is detected by FacsCalibre analysis. Consequently, by observing the percentage of cells in the live gate (which is an arbitrary region pre-set on a healthy population of TF-1 cells grown in the presence of GM-CSF (2 ng/ml)), one observes that there is a decrease in the percentage of cells with these light scatter parameters, when cytokine is withdrawn.

TF-1 cells [6] = assay: TF-1 apoptosis by sub G1 analysis; type: cell-based, human; conditions: 48 h with GM-CSF (approximately 55% in its absence)
Experimental: TF-1 cells are cultured for 48 h in the presence or absence of GM-CSF (2 ng/ml). Cells are then harvested by centrifugation (1000 rpm, for 10 min) and washed in PBS. The pellet is resuspended in PBS (2×10^5 cells/ml) and 1 ml is then added in a dropwise fashion to ice cold 70% EtoH whilst continuously vortexing. Cells are then permeabilized by incubating at −20° C. for 24 h. To stain DNA, cells are centrifuged and washed in PBS. Cells are resuspended in 500 μl Propidium Iodide Buffer (Propidium iodide (50 μg/ml; Sigma); RNAse A (50 μg/ml; Sigma) in Phosphate Buffered Saline (PBS; Sigma) for 15 min in the dark before flow cytometric analysis using a FacsCalibre (Becton Dickinson). Analysis is performed using Cell Quest software.

[7] = relatively high basal DPD activity

**Q.** What does the source list for O=c1[nH]cc(F)c(=O)[nH]1 [5FU, 5-fluorouracil]?
**A.** patients suffering from grade IV neutropenia ([1]; patients with a decreased DPD activity): 55%; patients suffering from grade IV neutropenia ([1]; patients with a normal DPD activity): 13%

**Q.** Which “GM-CSF mediated survival, sub G1 analysis” value (neutrophils; inhibitor 20 μM plus GM-CSF 50 units/ml, 18 h) does the source give for CCCCCCCCCCCCCCCCCCOC(=O)OC1C(O)C(O)C(CO)C(O)C1OC (stereo not shown) [AKT inhibitor] here?
**A.** survival is abrogated

**Q.** What does the source list for Oc1cc(O)c(Cl)cn1 [CDHP, 5-chloro-2,4-dihydroxypyridine]?
**A.** molar ratio (CDHP:5-FU) at maximum effect (MIAPaCa-2 and HuTu80; enhancement of 5-FU cytotoxicity): more than 0.2; cell proliferation, CDHP by itself (MIAPaCa-2 and HuTu80; in vitro study): did not influence cell proliferation by itself; 5-FU cytotoxicity (MIAPaCa-2 and HuTu80; [7]): enhanced 5-FU cytotoxicity in a concentration-dependent manner; 5-fluorouracil (5-FU) degradation (MIAPaCa-2 and HuTu80; [7]): inhibit 5-fluorouracil (5-FU) degradation; 5-FU cytotoxicity (CAL27 tumour cell line): did not have any effect on 5-FU cytotoxicity

**Q.** For O=c1[nH]c(=O)n(C2CCCO2)cc1F (stereo not shown) [FT, tegafur], which tumour growth inhibition (MIAPaCa-2 cells) is on record?
**A.** 21+/−25%

**Q.** What does the source list for CCCCC/C=C\C/C=C\C/C=C\CCCCC(=O)O [GLA, Gamma-linolenic acid]?
**A.** decrease in CTP1 activity (Walker 256 tumour): 62%; reduction of tumour growth (Walker 256 tumour): 45%

**Q.** For N[C@H]1CONC1=O [L-cycloserine], which “endogenous ceramide levels and tumor-induced DC apoptosis” value (bone marrow derived DC) is on record?
**A.** reduced endogenous ceramide levels and protected DC from tumor-induced apoptosis

**Q.** With CCCCCCCCCCCCCC(=O)O[C@@H]1[C@@H](C)[C@@]2(O)[C@@H](C=C(CO)C[C@]3(O)C(=O)C(C)=C[C@@H]23)[C@@H]2C(C)(C)[C@]12OC(C)=O [PMA] as the molecule, how does the “endogenous ceramide levels and tumor-induced DC apoptosis” value (bone marrow derived DC) read?
**A.** reduced endogenous ceramide levels and protected DC from tumor-induced apoptosis

**Q.** Which “CPT-1 and fatty acid oxidation” value [2] does the source give for C/C=C/C/C=C/CCC(=O)[C@H]1O[C@H]1C(N)=O [cerulenin] here?
**A.** causes carnitine palmitoyltransferase-1 (CPT-1) inhibition and fatty acid oxidation inhibition

**Q.** For CCOC(=O)[C@@]1(CCCCCCOc2ccc(Cl)cc2)CO1 [etomoxir], which “expression of redox related genes” value [3] is on record?
**A.** induces up regulation of redox related genes

**Q.** For ELAFIN, which “apoptosis/viability by FSc/SSc parameters” value (TF-1 cells [4]) is on record?
**A.** induces apoptosis in TF-1 cells

**Q.** Which “percentage of cells in the live gate” value (TF-1 cells [5]) does the source give for “GM-CSF: 22 kDa proinflammatory cytokine released by several activated cell types including monocytes and T cells” here?
**A.** 77%

**Q.** What about the “percentage of cells with a sub G1 profile” value (neutrophils; neutrophils cultured overnight with GM-CSF (65% without)) of the same molecule?
**A.** 9.7%

**Q.** And the “cells with sub-G1 profiles” value (TF-1 cells [6])?
**A.** 5%
